According to US7655396B1, “Methods for detecting receptor modulator activity” (Allergan, Inc., priority 2006, dated 2010):
Entries after “also recorded” stand apart in the source; their conditions may differ.

Molecular target: T1, mouse alpha 2B receptor (m α2B) (Mus musculus, UniProt P30545)
T1 construct: expressed in transfected cells
T1 sequence (P30545 1-453): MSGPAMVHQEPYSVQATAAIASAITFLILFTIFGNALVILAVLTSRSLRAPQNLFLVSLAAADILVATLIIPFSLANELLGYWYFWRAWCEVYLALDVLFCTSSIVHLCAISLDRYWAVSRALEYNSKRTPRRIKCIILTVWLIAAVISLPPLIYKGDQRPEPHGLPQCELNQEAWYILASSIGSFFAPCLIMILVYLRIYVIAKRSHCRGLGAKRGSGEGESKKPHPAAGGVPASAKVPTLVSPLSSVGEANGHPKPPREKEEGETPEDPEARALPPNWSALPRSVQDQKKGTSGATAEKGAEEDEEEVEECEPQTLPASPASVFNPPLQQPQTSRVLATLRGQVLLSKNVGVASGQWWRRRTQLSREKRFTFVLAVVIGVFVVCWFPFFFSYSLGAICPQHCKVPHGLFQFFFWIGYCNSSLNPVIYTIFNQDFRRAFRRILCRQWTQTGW
Test: FLIPR calcium flux assay in HEK 293 m α2B/Gqi5 cells (Fluo-4 dye)
Assay type: cell-based
Conditions: for activity (ratio of peak height divided by background fluorescence): FIGS. 3A-3C, room temperature, 1 to 10^4 nM, 384 well, FLIPR buffer without HEPES, commercial screening company
Description: This example describes the methodology used in assaying compounds for the ability to modulate the α2B receptor in a high throughput assay format in which the “readout” is the measurement of a change in intracellular calcium flux due to the use of the “promiscuous” Gqi5 hybrid G-protein, linking the α2B receptor (normally coupled to the adenylyl cyclase pathway) to the PLC pathway. Changes in intracellular calcium flux are monitored using a dye that becomes fluorescent when it binds free Ca^++ ion.
HEK 293 cells are stably co-transfected with two plasmids, the first encoding the mouse alpha 2B receptor (m α2B), and the second encoding the hybrid Gqi5 protein. […] The nucleotide sequence encoding the human Gqi5 protein is contained in the reference Aiyar et al., Human AT1 receptor is a single copy gene: characterization in a stable cell line. Mol. Cell. […] These references are hereby all incorporated by reference herein. […]
Each well of cells (in a 96 well microtiter dish) is assayed for activity in the FLIPR assay using the Fluo-4® calcium indicator dye to detect calcium flux. The structure of this dye, which can be purchased from Molecular Probes, Inc., is as follows:
The cells are loaded with this dye using the manufacturer's recommendations, and washed 3× with FLIPR Buffer. Assays are conducted at room temperature (unless otherwise indicated in the following examples). […] Only cells releasing Ca++ into the cytosol of the cells (thereby permitting Ca++ binding to the Fluo-4 dye) will have increased fluorescent emission at 520 nm.
Images of the illuminated cells are captured with a charge-coupled device (CCD) camera; CCD technology is adapted for producing high-resolution images in conditions of ultra low light. Images are collected at the rate of 60 images/minute (1 image per second) in each well. After 10 seconds, 50 μl of the test compound is pipetted into the well, and further images are collected at 1 second intervals for an additional 60 seconds, then at 15 second intervals for 4 minutes. Test compounds are prepared from 10^-2 M stocks in DMSO. Compounds are diluted in the FLIPR buffer to a final DMSO concentration of about 1%.
All images are stored on a computer hard drive for later retrieval and analysis.

[1] = FIG. 2, second experiment, 35° C., norepinephrine standard
[2] = FIG. 1, assay carried out at 35° C., 96 well

Compound	relative efficacy [1] [%]	activity (ratio of peak height divided by background fluorescence)	EC50 (FIG. 2, second experiment, 35° C., 96 well) [nM]	EC50 (32° C., FIG. 4B) [nM]	relative efficacy (32° C., FIG. 4B) [%]	EC50 (35° C., FIG. 4C) [nM]	relative efficacy (35° C., FIG. 4C) [%]	EC50 (37° C., FIG. 4D) [nM]	relative efficacy (37° C., FIG. 4D) [%]	EC50 [2] [nM]	relative efficacy compared to a norepinephrine standard [2] [%]	EC50 (Room Temp., FIG. 4A) [nM]	relative efficacy (Room Temp., FIG. 4A) [%]
norepinephrine [reference compound]	90	showed an activity ratio above background; also recorded: shows activity above background	–	–	–	–	–	–	–	–	–	–	–
O=C1C2=C(CCCC2)CCC1CC1CN=CN1 (centres unmarked) [Compound 3]	31	–	129	–	–	–	–	–	–	–	–	–	–
OCCNC(=S)NCc1cccc(Cl)c1F [Compound 2]	–	shows no activity; also recorded: very modest activity only at very high concentrations; also recorded: do not show activity to any significant degree	–	337	32	318	31	65	30	242	35	> 1000	–
COc1ccccc1N1CCN(CCN2C(=O)c3ccccc3C(C)(C)C2=O)CC1 [ARC 239, reference compound]	–	showed no ability to stimulate alpha 2B receptor activity	–	–	–	–	–	–	–	–	–	–	–
c1ncc(CC2CCC3=C(CCCC3)C2)[nH]1 (centres unmarked) [Compound 1]	–	do not show activity to any significant degree	–	302	30	321	40	67	40	238	40	305	12
